The source of these data is US11999727B2 (Tango Therapeutics, Inc., priority 2020, dated 2024).

Test [1] has as its target T1, PRMT5 (Homo sapiens, UniProt O14744).
T1 construct: purchased Viva (custom protein)
The experiment in a line: PRMT5 biochemical IC50 assay with no cofactor. As to conditions: PRMT5, no cofactor. The source says: Table 1 indicates IC50 values (μM) against PRMT5 for exemplary compounds in the presence of SAM as cofactor, with no cofactor, and with MTA as cofactor, respectively (columns 4-6). […] Ki values can be calculated from the IC50 values as described in the Examples section. As detailed in the Examples section, for the assay performed in the presence of SAM, IC50=Ki×1.5 (Ki=IC50/1.5).

Test [2] deals with HAP1 MTAP-intact cell line. As to the kind of experiment: SDMA in-cell western assay, HAP1 MTAP-intact. The class given is cell-based. To be noted: Homo sapiens, HAP1, SDMA in-cell western, HAP1 MTAP-intact; read-out: MTAP HAP1 intact IC50. The method in brief:
(§1)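 Compounds were tested in HAP1 cells differing only in MTAP status (endogenous expression versus null). Cellular SDMA levels were then measured by in-cell western, giving an IC50 in each background.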

The test system of test [3] is HAP1 MTAP-deleted cell line. The experiment in a line: Viability assay, MTAP-deleted cell line. To be noted: Homo sapiens, read-out: HAP1 MTAP deleted viability. The class given is cell-based. The source says:
Table 1 additionally indicates IC50 values in a viability assay for the MTAP-deleted cell line (column 10), indicating the effect of treatment with compound on cell survival.

Test [4] addresses T1, PRMT5. The experiment in a line: PRMT5 biochemical IC50 assay with SAM as cofactor. As to conditions: PRMT5, SAM as cofactor; read-out: SAM IC50.
The target of test [5] is T1, PRMT5. As to the kind of experiment: PRMT5 biochemical IC50 assay with MTA as cofactor. As to conditions: PRMT5, MTA as cofactor; read-out: MTA IC50.
Test [6] relates to HAP1 MTAP-deleted cell line. The experiment in a line: SDMA in-cell western assay, HAP1 MTAP-deleted. The class given is cell-based. To be noted: for pIC50: Homo sapiens, HAP1, SDMA in-cell western, HAP1 MTAP-deleted; for MTAP intact/deleted ratio: SDMA in-cell western. Summed up: as §1
[7] abbreviates: HAP1, viability assay, MTAP-deleted cell line.
The mark [8] stands for this setting: read-out: HAP1 MTAP deleted IC50.
[9] abbreviates: IC50 ratio HAP1 MTAP-intact vs HAP1 MTAP-deleted.
[10] abbreviates: IC50 ratio HAP1 MTAP-intact / HAP1 MTAP-deleted.
Setting [11] is: read-out: HAP 1 MTAP deleted IC50.
Setting [12] is: read-out: No Cofactor/ rel IC50.
[13] abbreviates: HAP1, viability IC50, MTAP-deleted cell line.

pIC50: −log10 of the molar value. A value given as a limit tells only on which side of the number the result lay.

T1 sequence (O14744 whole entry): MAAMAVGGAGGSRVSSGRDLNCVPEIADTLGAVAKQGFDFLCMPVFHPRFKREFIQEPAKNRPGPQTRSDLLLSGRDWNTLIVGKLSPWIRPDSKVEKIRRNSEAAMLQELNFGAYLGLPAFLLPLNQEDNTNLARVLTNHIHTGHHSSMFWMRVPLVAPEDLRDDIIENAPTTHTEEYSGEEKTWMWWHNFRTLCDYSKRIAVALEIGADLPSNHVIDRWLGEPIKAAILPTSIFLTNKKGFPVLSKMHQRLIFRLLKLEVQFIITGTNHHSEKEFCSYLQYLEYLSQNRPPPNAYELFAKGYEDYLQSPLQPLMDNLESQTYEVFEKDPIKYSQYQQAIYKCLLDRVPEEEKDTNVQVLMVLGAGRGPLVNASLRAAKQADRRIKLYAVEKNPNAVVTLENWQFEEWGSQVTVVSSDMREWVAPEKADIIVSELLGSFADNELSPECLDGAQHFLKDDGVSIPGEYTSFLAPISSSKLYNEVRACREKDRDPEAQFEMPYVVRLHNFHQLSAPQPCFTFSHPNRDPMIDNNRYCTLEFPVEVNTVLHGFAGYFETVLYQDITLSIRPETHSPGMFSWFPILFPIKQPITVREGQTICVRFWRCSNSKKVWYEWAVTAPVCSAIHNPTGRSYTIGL
T1 sequence (Q9BQA1 whole entry partner): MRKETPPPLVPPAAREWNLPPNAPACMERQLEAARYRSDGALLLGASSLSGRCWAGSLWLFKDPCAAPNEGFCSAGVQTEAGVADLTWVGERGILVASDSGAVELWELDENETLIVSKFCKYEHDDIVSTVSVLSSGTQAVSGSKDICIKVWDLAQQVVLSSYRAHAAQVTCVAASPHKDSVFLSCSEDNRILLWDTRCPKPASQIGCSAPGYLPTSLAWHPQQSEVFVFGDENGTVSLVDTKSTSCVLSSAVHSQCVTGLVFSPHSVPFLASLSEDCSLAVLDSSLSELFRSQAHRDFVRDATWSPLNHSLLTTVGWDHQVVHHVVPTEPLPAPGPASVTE

Take `COc1ncc(NC(=O)C(=O)N2C[C@@H](C)CC[C@@H]2c2ccc3sc([C@@H]4CCN(C)C[C@H]4C)nc3c2)cc1C(N)=O` (racemic) [Compound 1127, 2-methoxy-5-[[2-oxo-2-[rac-(2R,5S)-5-methyl-2-[2-[rac-(3S,4R)-1,3-dimethyl-4-piperidyl]-1,3-benzothiazol-5-yl]-1-piperidyl]acetyl]amino]pyridine-3-carboxamide]: the pIC50 was greater than 7.30 in test [1] (read-out: No Cofactor/rel IC50); greater than 7.00 in test [2]; greater than 6.00 in test [3] (setting [7]); greater than 7.30 in test [4]; greater than 7.30 in test [5]; greater than 7.00 in test [6] (setting [8]). In addition, the MTAP intact/deleted ratio entry in test [6] (setting [9]) is “A (an IC50 ratio greater than or equal to 10 fold)”.

For `Cc1cc(NC(=O)C(=O)N2C[C@@H](C)CC[C@@H]2c2ccccc2)cnc1C` (single isomer, unassigned) [Compound 258], the pIC50 in test [1] (read-out: No Cofactor/rel IC50) is less than 6.30; in test [2], less than 6.00; in test [3] (setting [7]), less than 5.00; in test [4], less than 6.30; in test [5], less than 6.30; in test [6] (setting [8]), less than 6.00. In test [6] (setting [10]), the MTAP intact/deleted ratio result is “C (an IC50 ratio of less than 3 fold)”.

For `COc1ncc(NC(=O)C(=O)N2C[C@@H](C)CC[C@@H]2c2ccc3nn([C@@H]4CCN(C)C4)cc3c2)cc1C(N)=O` (racemic) [Compound 1141, 2-Methoxy-5-[[2-oxo-2-[rac-(2R,5S)-5-methyl-2-[2-[rac-(3R)-1-methylpyrrolidin-3-yl]indazol-5-yl]-1-piperidyl]acetyl]amino]pyridine-3-carboxamide], the pIC50 in test [1] (read-out: No Cofactor/rel IC50) is greater than 7.30; in test [2] it was 6.00 to 7.00; in test [3] (setting [7]), greater than 6.00; in test [4], 6.30 to 7.30; in test [5], greater than 7.30; in test [6] (setting [8]) it was greater than 7.00. For the same compound, the MTAP intact/deleted ratio entry in test [6] (setting [9]) was “A (an IC50 ratio greater than or equal to 10 fold)”.

Take `CCc1cc(NC(=O)C(=O)N2C[C@@H](C)CC[C@@H]2c2ccc(N3CCN(C)CC3)cc2)cnc1N` (racemic) [Compound 1209, rac-N-(6-Amino-5-ethyl-3-pyridyl)-2-[(2S,5R)-5-methyl-2-[4-(4-methylpiperazin-1-yl)phenyl]-1-piperidyl]-2-oxo-acetamide]: the pIC50 in test [1] (read-out: No Cofactor/rel IC50) is 6.30 to 7.30; in test [2], 6.00 to 7.00; in test [3] (setting [7]), greater than 6.00; in test [4], 6.30 to 7.30; in test [5] it was greater than 7.30; in test [6] (setting [8]), greater than 7.00. Moreover, the MTAP intact/deleted ratio entry in test [6] (setting [9]) is reported as “A (an IC50 ratio greater than or equal to 10 fold)”.

Turning to `CCc1cc(NC(=O)C(=O)N2C[C@H](C)[C@H](OC)C[C@H]2c2ccc(N3CCN(C)CC3)cc2)cnc1N` (single isomer, unassigned) [Compound 1089], the pIC50 in test [1] (read-out: No Cofactor/rel IC50) is 6.30 to 7.30; in test [2], 6.00 to 7.00; in test [3] (setting [7]), greater than 6.00; in test [4] it was 6.30 to 7.30; in test [5], greater than 7.30; in test [6] (setting [8]) it was greater than 7.00. Further, the MTAP intact/deleted ratio entry in test [6] (setting [9]) is listed as “A (an IC50 ratio greater than or equal to 10 fold)”.

For the compound `Cc1cc(NC(=O)C(=O)N2C[C@@H](C)CC[C@@H]2c2ccc(NS(C)(=O)=O)nc2)cnc1N` (single isomer, unassigned) [Compound 998], the pIC50 in test [1] (read-out: No Cofactor/rel IC50) is less than 6.30; in test [2], less than 6.00; in test [3] (setting [7]) it was less than 5.00; in test [4], less than 6.30; in test [5], less than 6.30; in test [6] (setting [11]), less than 6.00. In addition, in test [6] (setting [10]), the MTAP intact/deleted ratio result is given as “C (an IC50 ratio of less than 3 fold)”.

`Cc1cncc(NC(=O)C(=O)N2C[C@H](C)CC[C@H]2c2cccc(Cl)c2)c1` (single isomer, unassigned) [Compound 90]: the pIC50 in test [1] (setting [12]) is less than 6.30; in test [2], less than 6.00; in test [3] (setting [7]), less than 5.00; in test [4] it was less than 6.30; in test [5] it was less than 6.30; in test [6] (setting [11]) it was less than 6.00. Also, the “MTAP intact/deleted ratio” value in test [6] (setting [10]) is given as “C (an IC50 ratio of less than 3 fold)”.

With `Cc1ncc(NC(=O)C(=O)N2C[C@@H](C)CC[C@@H]2c2ccc3c(c2)CCC(=O)N3)cc1C(F)F` (single isomer, unassigned) [Compound 903], the pIC50 is less than 6.30 in test [1] (read-out: No Cofactor/rel IC50); less than 6.00 in test [2]; less than 5.00 in test [3] (setting [7]); less than 6.30 in test [4]; less than 6.30 in test [5]; less than 6.00 in test [6] (setting [11]). For the same compound, the MTAP intact/deleted ratio entry in test [6] (setting [10]) is “B (an IC50 ratio greater than or equal to 3 fold but lower than 10 fold)”.

Consider `C[C@@H]1CC[C@@H](c2ccc(F)cc2)N(C(=O)C(=O)Nc2cncc(C(N)=O)c2)C1` [Compound 302, 5-[[2-[(2S,5R)-2-(4-fluorophenyl)-5-methyl-1-piperidyl]-2-oxo-acetyl]amino]pyridine-3-carboxamide], for which the pIC50 was less than 6.30 in test [1] (read-out: No Cofactor/rel IC50); less than 6.00 in test [2]; less than 5.00 in test [3] (setting [7]); less than 6.30 in test [4]; less than 6.30 in test [5]; less than 6.00 in test [6] (setting [8]). Further, in test [6] (setting [10]), the MTAP intact/deleted ratio entry is “C (an IC50 ratio of less than 3 fold)”.

On to `COCCc1nc2cc([C@H]3CC[C@H](C)CN3C(=O)C(=O)Nc3cnc(N)c(C4CC4)c3)ccc2s1` (single isomer, unassigned) [Compound 1176], for which the pIC50 was less than 6.30 in test [1] (read-out: No Cofactor/rel IC50); less than 6.00 in test [2]; less than 5.00 in test [3] (setting [7]); less than 6.30 in test [4]; less than 6.30 in test [5]; less than 6.00 in test [6] (setting [8]).

As to `Cc1cc(NC(=O)C(=O)N2C[C@@H](C)CC[C@@H]2c2ccc3c(cnn3C)c2)cnc1N` (single isomer, unassigned) [Compound 1037], the pIC50 in test [1] (read-out: No Cofactor/rel IC50) was less than 6.30; in test [2], less than 6.00; in test [3] (setting [7]), less than 5.00; in test [4] it was less than 6.30; in test [5], less than 6.30; in test [6] (setting [11]) it was 6.00 to 7.00. The MTAP intact/deleted ratio result in test [6] (setting [10]) is on record as “A (an IC50 ratio greater than or equal to 10 fold)”.

In the case of `C[C@@H]1CC[C@@H](c2cccc(C(F)(F)F)c2)N(C(=O)C(=O)Nc2cncc(C(N)=O)c2)C1` (single isomer, unassigned) [Compound 510], the pIC50 in test [1] (read-out: No Cofactor/rel IC50) was less than 6.30; in test [2] it was less than 6.00; in test [3] (setting [7]), less than 5.00; in test [4], less than 6.30; in test [5] it was less than 6.30; in test [6] (setting [8]), less than 6.00. In addition, the MTAP intact/deleted ratio result in test [6] (setting [10]) is reported as “C (an IC50 ratio of less than 3 fold)”.

`COc1cc([C@@H]2CC[C@@H](C)CN2C(=O)C(=O)Nc2cncc(C(N)=O)c2)ccc1Cl` (racemic) [Compound 114, rac-rac-5-{2-[(2R,5S)-2-(4-chloro-3-methoxyphenyl)-5-methylpiperidin-1-yl]-2-oxoacetamido}pyridine-3-carboxamide]: the pIC50 is 6.30 to 7.30 in test [1] (setting [12]); less than 6.00 in test [2]; less than 5.00 in test [3] (setting [7]); 6.30 to 7.30 in test [4]; greater than 7.30 in test [5]; greater than 7.00 in test [6] (setting [11]). Besides, the “MTAP intact/deleted ratio” value in test [6] (setting [10]) is recorded as “A (an IC50 ratio greater than or equal to 10 fold)”.

With `Cc1nc2cc([C@H]3CC[C@H](C)CN3C(=O)C(=O)Nc3cnc(N)c(C4CC4)c3)ccc2s1` (single isomer, unassigned) [Compound 1313], the pIC50 in test [1] (setting [12]) is greater than 7.30; in test [2], 6.00 to 7.00; in test [3] (HAP1, viability, HAP1 MTAP-deleted cell line), greater than 6.00; in test [4], 6.30 to 7.30; in test [5], greater than 7.30; in test [6] (setting [11]) it was greater than 7.00. Further, in test [6] (setting [10]), the “MTAP intact/deleted ratio” value is “A (an IC50 ratio greater than or equal to 10 fold)”.

As for `Cc1cc(NC(=O)C(=O)N2C[C@H](C)CC[C@H]2c2cnc3[nH]ncc3c2)cnc1N` (single isomer, unassigned) [Compound 549], the pIC50 is 6.30 to 7.30 in test [1] (read-out: No Cofactor/rel IC50); 6.00 to 7.00 in test [2]; 5.00 to 6.00 in test [3] (setting [13]); 6.30 to 7.30 in test [4]; greater than 7.30 in test [5]; greater than 7.00 in test [6] (setting [11]). The MTAP intact/deleted ratio entry in test [6] (setting [10]) was “A (an IC50 ratio greater than or equal to 10 fold)”.

Take `Cc1cc(NC(=O)C(=O)N2C[C@H](C)CC[C@H]2c2cccc(S(C)(=O)=O)c2)cnc1N` (racemic) [Compound 667, N-(6-amino-5-methyl-3-pyridyl)-2-[(2R,5S)-5-methyl-2-(3-methylsulfonylphenyl)-1-piperidyl]-2-oxo-acetamide]: the pIC50 in test [1] (read-out: No Cofactor/rel IC50) was 6.30 to 7.30; in test [2] it was less than 6.00; in test [3] (setting [13]), 5.00 to 6.00; in test [4] it was 6.30 to 7.30; in test [5] it was 6.30 to 7.30; in test [6] (setting [11]), 6.00 to 7.00. For the same compound, the MTAP intact/deleted ratio entry in test [6] (setting [10]) is “A (an IC50 ratio greater than or equal to 10 fold)”.
